In patent US20240016781A1, “TREATMENT OF KRAS MUTANT CANCERS” (MEI Pharma, Inc., priority 2020, published 2024):
pEC50, pIC50: −log10 of the molar value. Where two headings read alike, the source gives them in different places.

Experiments:
Test in all cases: 72-hour CellTiter-Glo 2.0 growth inhibition screen (single agent, 9x9 combination dose matrix);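 as to Best CI Level: inhibition effect level at which the best CI was calculated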
Type in all cases: cell-based
HCC1171 = tested on: HCC1171;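 as to Best CI Level: inhibition effect level at which the best CI was calculated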
HPAF-II = tested on: HPAF-II;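 as to Best CI Level: inhibition effect level at which the best CI was calculated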
KYSE-410 = tested on: KYSE-410;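 as to Best CI Level: inhibition effect level at which the best CI was calculated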
Panc 04.03 = tested on: Panc 04.03;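 as to Best CI Level: inhibition effect level at which the best CI was calculated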
SW48 = tested on: SW48;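 as to Best CI Level: inhibition effect level at which the best CI was calculated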
[1] = HCC1171 (KRAS G12C), enhancer + MEI-522 (Voruciclib), 72 h;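 as to Best CI Level: inhibition effect level at which the best CI was calculated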
[2] = HCC1171, Lung, Additional Single Agent Responses (inhibition, % I), 72 h
[3] = HCC1171, Lung, growth inhibition (GI) curve, single agent, 72 h
[4] = HCC1171, Lung, growth inhibition (GI), AUC, single agent, 72 h
[5] = enhancer combined with MEI-522 (Voruciclib), HCC1171 (Lung), 72 hours, inhibition data
[6] = HPAF-II (KRAS G12D), enhancer + MEI-522 (Voruciclib), 72 h;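 as to Best CI Level: inhibition effect level at which the best CI was calculated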
[7] = HPAF-II, Pancreas, Additional Single Agent Responses (inhibition, % I), 72 h
[8] = HPAF-II, Pancreas, growth inhibition (GI), AUC, single agent, 72 h
[9] = enhancer combined with MEI-522 (Voruciclib), HPAF-II (Pancreas), 72 hours, inhibition data
[10] = KYSE-410 (KRAS G12C), enhancer + MEI-522 (Voruciclib), 72 h;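 as to Best CI Level: inhibition effect level at which the best CI was calculated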
[11] = KYSE-410, Esophageal, Additional Single Agent Responses (inhibition, % I), 72 h
[12] = KYSE-410, Esophageal, growth inhibition (GI), AUC, single agent, 72 h
[13] = enhancer combined with MEI-522 (Voruciclib), KYSE-410 (Esophageal), 72 hours, inhibition data
[14] = Panc 04.03 (KRAS G12D), enhancer + MEI-522 (Voruciclib), 72 h;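 as to Best CI Level: inhibition effect level at which the best CI was calculated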
[15] = Panc 04.03, Pancreas, Additional Single Agent Responses (inhibition, % I), 72 h
[16] = Panc 04.03, Pancreas, growth inhibition (GI), AUC, single agent, 72 h
[17] = enhancer combined with MEI-522 (Voruciclib), Panc 04.03 (Pancreas), 72 hours, inhibition data
[18] = SW48 (KRAS WT), enhancer + MEI-522 (Voruciclib), 72 h;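 as to Best CI Level: inhibition effect level at which the best CI was calculated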
[19] = SW48, Colorectal, Additional Single Agent Responses (inhibition, % I), 72 h
[20] = SW48, Colorectal, growth inhibition (GI), AUC, single agent, 72 h
[21] = enhancer combined with MEI-522 (Voruciclib), SW48 (Colorectal), 72 hours, inhibition data
[22] = HPAF-II, Pancreas, growth inhibition (GI) curve, single agent, 72 h
[23] = KYSE-410, Esophageal, growth inhibition (GI) curve, single agent, 72 h
[24] = Panc 04.03, Pancreas, growth inhibition (GI) curve, single agent, 72 h
[25] = SW48, Colorectal, growth inhibition (GI) curve, single agent, 72 h

## CC[C@@H]1C(=O)N(C)c2cnc(Nc3ccc(C(=O)N[C@H]4CC[C@H](N5CCN(CC6CC6)CC5)CC4)cc3OC)nc2N1C(C)C [Volasertib]
HCC1171; [1]
  Best CI: 0.95
  Bliss Volume: −2.15
  HSA volume: −1.49
  Loewe Volume: −1.27
  Synergy Score: 2.07
HCC1171; [2]
  pEC50: 8.33
  Response Area: 1.99
HCC1171; HCC1171, Lung, Additional Single Agent Responses, 72 h, read-out: Max Response (% I)
  Emax: 45%
HCC1171; [3]
  GI50: 5.3 nM
HCC1171; [4]
  Response Area: 3.40
HCC1171; HCC1171, Lung, growth inhibition (GI), single agent, 72 h, read-out: Max Response (% GI)
  Emax: 79%
HCC1171; [5]
  Best CI: 0.79
  Bliss Volume: −3.18
  HSA volume: −0.81
  Loewe Volume: −0.71
  Synergy Score: 0.73
HCC1171; enhancer combined with MEI-522 (Voruciclib), HCC1171 (Lung), 72 hours, inhibition data, unit assumed
  Best CI Level: 50%
HPAF-II; [6]
  Best CI: 0.66
  Bliss Volume: −0.85
  HSA volume: 0.04
  Loewe Volume: −0.80
  Synergy Score: 2.64
HPAF-II; [7]
  Response Area: 3.45
HPAF-II; [8]
  Response Area: 4.65
HPAF-II; Homo sapiens, HPAF-II, 72 h, Pancreas, Additional Single Agent Responses (inhibition, % I)
  pEC50: 8.41
HPAF-II; Homo sapiens, HPAF-II, 72 h, Pancreas, growth inhibition (GI) curve, single agent
  pEC50: 8.41
HPAF-II; Homo sapiens, HPAF-II, Pancreas, Additional Single Agent Responses (inhibition, % I), 72 h
  pIC50: 8.21
HPAF-II; Homo sapiens, HPAF-II, Pancreas, Additional Single Agent Responses, 72 h, read-out: Max Response (% I)
  Emax: 71%
HPAF-II; Homo sapiens, HPAF-II, Pancreas, growth inhibition (GI) curve, single agent, 72 h
  GI50: 4.4 nM
HPAF-II; Homo sapiens, HPAF-II, Pancreas, growth inhibition (GI), single agent, 72 h, read-out: Max Response (% GI)
  Emax: 95%
HPAF-II; [9]
  Best CI: 0.52
  Bliss Volume: −2.61
  HSA volume: −0.36
  Loewe Volume: −0.96
  Synergy Score: 0.98
HPAF-II; enhancer combined with MEI-522 (Voruciclib), HPAF-II (Pancreas), 72 hours, inhibition data, unit assumed
  Best CI Level: 70%
KYSE-410; Homo sapiens, KYSE-410, 72 h, KYSE-410, Esophageal, Additional Single Agent Responses (inhibition, % I), 72 h
  pEC50: 8.07
KYSE-410; Homo sapiens, KYSE-410, 72 h, KYSE-410, Esophageal, growth inhibition (GI) curve, single agent, 72 h
  pEC50: 8.07
KYSE-410; Homo sapiens, KYSE-410, Esophageal, Additional Single Agent Responses (inhibition, % I), 72 h
  pIC50: 7.88
KYSE-410; Homo sapiens, KYSE-410, Esophageal, Additional Single Agent Responses, 72 h, read-out: Max Response (% I)
  Emax: 74%
KYSE-410; Homo sapiens, KYSE-410, Esophageal, growth inhibition (GI) curve, single agent, 72 h
  GI50: 10.1 nM
KYSE-410; Homo sapiens, KYSE-410, Esophageal, growth inhibition (GI), single agent, 72 h, read-out: Max Response (% GI)
  Emax: 89%
KYSE-410; [10]
  Best CI: 1.85
  Bliss Volume: −3.04
  HSA volume: −2.10
  Loewe Volume: −3.58
  Synergy Score: 0.91
KYSE-410; [11]
  Response Area: 3.52
KYSE-410; [12]
  Response Area: 4.24
KYSE-410; [13]
  Best CI: 0.40
  Bliss Volume: −3.11
  HSA volume: −1.71
  Loewe Volume: −2.95
  Synergy Score: 0.62
KYSE-410; enhancer combined with MEI-522 (Voruciclib), KYSE-410 (Esophageal), 72 hours, inhibition data, unit assumed
  Best CI Level: 70%
Panc 04.03; Homo sapiens, Panc 04.03, 72 h
  GI50: 4.6 nM
  pIC50: 8.23
Panc 04.03; Homo sapiens, Panc 04.03, 72 h, Panc 04.03, Pancreas, Additional Single Agent Responses (inhibition, % I), 72 h
  pEC50: 8.38
Panc 04.03; Homo sapiens, Panc 04.03, 72 h, Panc 04.03, Pancreas, growth inhibition (GI) curve, single agent, 72 h
  pEC50: 8.38
Panc 04.03; Homo sapiens, Panc 04.03, 72 h, read-out: Max Response (% GI)
  Emax: 87%
Panc 04.03; Homo sapiens, Panc 04.03, 72 h, read-out: Max Response (% I)
  Emax: 64%
Panc 04.03; [14]
  Best CI: 0.74
  Bliss Volume: 4.14
  HSA volume: 2.74
  Loewe Volume: 1.36
  Synergy Score: 7.71
Panc 04.03; [15]
  Response Area: 2.78
Panc 04.03; [16]
  Response Area: 3.75
Panc 04.03; [17]
  Best CI: 0.67
  Best CI Level: 80
  Bliss Volume: −0.87
  HSA volume: 1.03
  Loewe Volume: 0.18
  Synergy Score: 2.30
SW48; Homo sapiens, SW48, 72 h, SW48, Colorectal, Additional Single Agent Responses (inhibition, % I), 72 h
  pEC50: 8.33
SW48; Homo sapiens, SW48, 72 h, SW48, Colorectal, growth inhibition (GI) curve, single agent, 72 h
  pEC50: 8.31
SW48; Homo sapiens, SW48, Colorectal, Additional Single Agent Responses (inhibition, % I), 72 h
  pIC50: 8.31
SW48; Homo sapiens, SW48, Colorectal, Additional Single Agent Responses, 72 h, read-out: Max Response (% I)
  Emax: 95%
SW48; Homo sapiens, SW48, Colorectal, growth inhibition (GI) curve, single agent, 72 h
  GI50: 4.6 nM
SW48; Homo sapiens, SW48, Colorectal, growth inhibition (GI), single agent, 72 h, read-out: Max Response (% GI)
  Emax: 174%
SW48; [18]
  Best CI: 0.11
  Bliss Volume: 8.81
  HSA volume: −0.59
  Loewe Volume: 1.23
  Synergy Score: 11.75
SW48; [19]
  Response Area: 4.47
SW48; [20]
  Response Area: 6.76
SW48; [21]
  Best CI: 0.60
  Bliss Volume: 0.08
  HSA volume: 0.40
  Loewe Volume: 0.43
  Synergy Score: 1.83
SW48; enhancer combined with MEI-522 (Voruciclib), SW48 (Colorectal), 72 hours, inhibition data, unit assumed
  Best CI Level: 20%

## CN1CC[C@@H](c2c(O)cc(O)c3c(=O)cc(-c4ccc(C(F)(F)F)cc4Cl)oc23)[C@@H]1CO [MEI-522(Voruciclib)]
HCC1171; [2]
  pEC50: 6.17
  pIC50: 5.52
  Response Area: 1.62
HCC1171; HCC1171, Lung, Additional Single Agent Responses, 72 h
  Max Response (% I): 51 % I
HCC1171; [3]
  pEC50: 6.17
  GI50: 734 nM
HCC1171; [4]
  Response Area: 2.84
HCC1171; HCC1171, Lung, growth inhibition (GI), single agent, 72 h
  Max Response (% GI): 89 % GI
HPAF-II; [7]
  pEC50: 5.88
  pIC50: 5.73
  Response Area: 2.09
HPAF-II; HPAF-II, Pancreas, Additional Single Agent Responses, 72 h
  Max Response (% I): 72 % I
HPAF-II; [22]
  pEC50: 5.88
  GI50: 1340 nM
HPAF-II; [8]
  Response Area: 2.84
HPAF-II; HPAF-II, Pancreas, growth inhibition (GI), single agent, 72 h
  Max Response (% GI): 97 % GI
KYSE-410; [11]
  pEC50: 5.76
  pIC50: 5.72
  Response Area: 1.97
KYSE-410; KYSE-410, Esophageal, Additional Single Agent Responses, 72 h
  Max Response (% I): 72 % I
KYSE-410; [23]
  pEC50: 5.76
  GI50: 1800 nM
KYSE-410; [12]
  Response Area: 2.41
KYSE-410; KYSE-410, Esophageal, growth inhibition (GI), single agent, 72 h
  Max Response (% GI): 87 % GI
Panc 04.03; [15]
  pEC50: 5.88
  pIC50: 5.85
  Response Area: 2.65
Panc 04.03; Panc 04.03, Pancreas, Additional Single Agent Responses, 72 h
  Max Response (% I): 92 % I
Panc 04.03; [24]
  pEC50: 5.76
  GI50: 1300 nM
Panc 04.03; [16]
  Response Area: 4.67
Panc 04.03; Panc 04.03, Pancreas, growth inhibition (GI), single agent, 72 h
  Max Response (% GI): 168 % GI
SW48; [19]
  pEC50: 6.35
  pIC50: 6.28
  Response Area: 2.91
SW48; SW48, Colorectal, Additional Single Agent Responses, 72 h
  Max Response (% I): 87 % I
SW48; [25]
  pEC50: 6.25
  GI50: 422 nM
SW48; [20]
  Response Area: 4.44
SW48; SW48, Colorectal, growth inhibition (GI), single agent, 72 h
  Max Response (% GI): 135 % GI
